According to BigSolDB 2.1:

With `NC(=O)c1ccccc1O` as the compound, how does the solubility (mole fraction) (in acetone, 253.15 K) read?
The solubility (mole fraction) was 0.0592.

What about the solubility (mole fraction) (in acetone, 258.15 K) of the same compound?
Its solubility (mole fraction) is 0.0639.

And the solubility (mole fraction) (in acetone, 263.15 K)?
The solubility (mole fraction) was 0.0703.

And the solubility (mole fraction) (in acetone, 268.15 K)?
The solubility (mole fraction) was 0.077.

And the solubility (mole fraction) (in acetone, 273.15 K)?
The solubility (mole fraction) was 0.0839.

What about the solubility (mole fraction) (in acetone, 278.15 K) of the same compound?
The solubility (mole fraction) was 0.0911.

And the solubility (mole fraction) (in acetone, 283.15 K)?
Its solubility (mole fraction) is 0.0986.

What about the solubility (mole fraction) (in acetonitrile, 243.15 K) of the same compound?
Its solubility (mole fraction) is 0.005.

And the solubility (mole fraction) (in acetonitrile, 248.15 K)?
The solubility (mole fraction) was 0.006.

And the solubility (mole fraction) (in acetonitrile, 253.15 K)?
The solubility (mole fraction) was 0.0071.

And the solubility (mole fraction) (in acetonitrile, 258.15 K)?
Its solubility (mole fraction) is 0.0087.

What about the solubility (mole fraction) (in acetonitrile, 263.15 K) of the same compound?
The solubility (mole fraction) was 0.0108.

And the solubility (mole fraction) (in acetonitrile, 268.15 K)?
The solubility (mole fraction) was 0.012.

And the solubility (mole fraction) (in acetonitrile, 273.15 K)?
Its solubility (mole fraction) is 0.0143.

And the solubility (mole fraction) (in acetonitrile, 278.15 K)?
The solubility (mole fraction) was 0.017.

What about the solubility (mole fraction) (in acetonitrile, 283.15 K) of the same compound?
The solubility (mole fraction) was 0.0199.

What about the solubility (mole fraction) (in ethyl acetate, 253.15 K) of the same compound?
Its solubility (mole fraction) is 0.0305.

And the solubility (mole fraction) (in ethyl acetate, 258.15 K)?
Its solubility (mole fraction) is 0.0335.

And the solubility (mole fraction) (in ethyl acetate, 263.15 K)?
The solubility (mole fraction) was 0.0374.

What about the solubility (mole fraction) (in ethyl acetate, 268.15 K) of the same compound?
The solubility (mole fraction) was 0.0406.

And the solubility (mole fraction) (in ethyl acetate, 273.15 K)?
The solubility (mole fraction) was 0.0446.

And the solubility (mole fraction) (in ethyl acetate, 278.15 K)?
Its solubility (mole fraction) is 0.0497.

And the solubility (mole fraction) (in ethyl acetate, 283.15 K)?
Its solubility (mole fraction) is 0.0547.

What about the solubility (mole fraction) (in methanol, 253.15 K) of the same compound?
The solubility (mole fraction) was 0.012.

What about the solubility (mole fraction) (in methanol, 258.15 K) of the same compound?
Its solubility (mole fraction) is 0.0136.

And the solubility (mole fraction) (in methanol, 263.15 K)?
The solubility (mole fraction) was 0.0157.

And the solubility (mole fraction) (in methanol, 268.15 K)?
Its solubility (mole fraction) is 0.0181.

And the solubility (mole fraction) (in methanol, 273.15 K)?
The solubility (mole fraction) was 0.0204.

And the solubility (mole fraction) (in methanol, 278.15 K)?
The solubility (mole fraction) was 0.0233.

And the solubility (mole fraction) (in methanol, 283.15 K)?
Its solubility (mole fraction) is 0.0266.

With `O=C(O)c1ccccc1O` as the compound, how does the solubility (mole fraction) (in acetone, 253.15 K) read?
Its solubility (mole fraction) is 0.0913.

And the solubility (mole fraction) (in acetone, 258.15 K)?
Its solubility (mole fraction) is 0.0978.

And the solubility (mole fraction) (in acetone, 263.15 K)?
The solubility (mole fraction) was 0.108.

What about the solubility (mole fraction) (in acetone, 268.15 K) of the same compound?
Its solubility (mole fraction) is 0.114.

And the solubility (mole fraction) (in acetone, 273.15 K)?
The solubility (mole fraction) was 0.122.

What about the solubility (mole fraction) (in acetone, 278.15 K) of the same compound?
The solubility (mole fraction) was 0.138.

What about the solubility (mole fraction) (in acetone, 283.15 K) of the same compound?
Its solubility (mole fraction) is 0.143.

What about the solubility (mole fraction) (in acetonitrile, 243.15 K) of the same compound?
Its solubility (mole fraction) is 0.0052.

And the solubility (mole fraction) (in acetonitrile, 248.15 K)?
The solubility (mole fraction) was 0.0061.

And the solubility (mole fraction) (in acetonitrile, 253.15 K)?
Its solubility (mole fraction) is 0.0071.

And the solubility (mole fraction) (in acetonitrile, 258.15 K)?
The solubility (mole fraction) was 0.0084.

What about the solubility (mole fraction) (in acetonitrile, 263.15 K) of the same compound?
Its solubility (mole fraction) is 0.01.

What about the solubility (mole fraction) (in acetonitrile, 268.15 K) of the same compound?
The solubility (mole fraction) was 0.012.

What about the solubility (mole fraction) (in acetonitrile, 273.15 K) of the same compound?
Its solubility (mole fraction) is 0.0141.

What about the solubility (mole fraction) (in acetonitrile, 278.15 K) of the same compound?
The solubility (mole fraction) was 0.0159.

What about the solubility (mole fraction) (in acetonitrile, 283.15 K) of the same compound?
The solubility (mole fraction) was 0.0185.

What about the solubility (mole fraction) (in ethyl acetate, 253.15 K) of the same compound?
The solubility (mole fraction) was 0.0554.

And the solubility (mole fraction) (in ethyl acetate, 258.15 K)?
Its solubility (mole fraction) is 0.0651.

What about the solubility (mole fraction) (in ethyl acetate, 263.15 K) of the same compound?
The solubility (mole fraction) was 0.075.

And the solubility (mole fraction) (in ethyl acetate, 268.15 K)?
Its solubility (mole fraction) is 0.086.

What about the solubility (mole fraction) (in ethyl acetate, 273.15 K) of the same compound?
The solubility (mole fraction) was 0.09.

What about the solubility (mole fraction) (in ethyl acetate, 278.15 K) of the same compound?
The solubility (mole fraction) was 0.099.

What about the solubility (mole fraction) (in ethyl acetate, 283.15 K) of the same compound?
The solubility (mole fraction) was 0.107.

What about the solubility (mole fraction) (in methanol, 253.15 K) of the same compound?
Its solubility (mole fraction) is 0.0605.

What about the solubility (mole fraction) (in methanol, 258.15 K) of the same compound?
Its solubility (mole fraction) is 0.065.

What about the solubility (mole fraction) (in methanol, 263.15 K) of the same compound?
Its solubility (mole fraction) is 0.0699.

And the solubility (mole fraction) (in methanol, 268.15 K)?
Its solubility (mole fraction) is 0.075.

And the solubility (mole fraction) (in methanol, 273.15 K)?
The solubility (mole fraction) was 0.083.

What about the solubility (mole fraction) (in methanol, 278.15 K) of the same compound?
The solubility (mole fraction) was 0.09.

And the solubility (mole fraction) (in methanol, 283.15 K)?
The solubility (mole fraction) was 0.1.
